Here are results for 14 compounds from patent publication US7230139B2, “Diterpenoid compounds, compositions thereof and their use as anti-cancer or anti-fungal agents” (priority 2004, dated 2007).

Where two headings read alike, the source gives them in different places.

Usually IC50 stands for the concentration at which inhibition is half-maximal.

Data set [1] is classed as in vivo, CB17 SCID/SCID female mice. The following applies: day 34; i.p. 3.5 mg/kg once every 3 days for fifteen days. As for the experimental part: C33A cells were transplanted subcutaneously into the flank of female CB17 SCID/SCID mice. Each mouse was inoculated with a suspension of 2×10^6 tumor cells per 100 μL on day zero. The following six treatment groups of ten mice each were used: (a) a negative control group treated with intravenous (i.v.) injection of vehicle, (b) a negative control group treated with intraperitoneal (i.p.) injection of vehicle, (c) a positive control group treated with i.p. injection of Cisplatin, (d) a group treated with i.v. injection of a Compound 50, (e) a group treated with i.p. injection of Compound 50, and (f) a group treated with subcutaneous (s.c.) injection of Compound 50.
Treatment started on day thirteen after C33A cells transplantation for Compound 50 treated groups and on day fourteen for Cisplatin treated group. Compound 50 was administered i.v., i.p., and s.c. once daily for five consecutive days at a dose of 10, 15 and 30 mg/kg, respectively. Compound 50 was prepared as a working solution of 1.5 mg/mL in a vehicle solution of 20% Cremaphor EL (Sigma, St. Louis, Mo., USA), 10% Ethanol and 5% Dextrose (Abbot Laboratories, QC, Canada). The negative control groups were treated with vehicle alone. The positive control group was treated once every 3 days for fifteen days at a dose of 3.5 mg/kg. Cisplatin was formulated in PBS on each day of the injection and was administered i.p.
The mice were weighed and the tumors measured on day 13 and every 2 to 3 days after treatment commenced. Observations continued for 36 days after initial tumor implantation. The changes in body weight and in the calculated tumor volume were plotted (FIGS. 4 and 5). Statistical analysis was performed using GraphPad Prism (GraphPad Software Inc., San Diego, Calif.). Two-way ANOVA was used to determine how the treatment affected tumor growth over time. Following the two-way ANOVA, post-tests were performed using the Benferroni method to determine the statistical difference between the mean tumor-size of the two groups being compared on every day that the tumors were measured. […]

In data set [2] the test system is H1299 and C33A cancer cells versus HMEC and MRC-5 normal cells. As to conditions: 72 h; 1.6 μM Compound 48, 10 μM etoposide, 100 nM staurosporine. As for the experimental part: H1299 non-small cell lung carcinoma cells, C33A cervical carcinoma cells, Mrc-5 normal lung fibroblasts (American Type Culture Collection, Manassas, Va. USA) and HMEC normal mammary epithelial cells (Clonetics San Diego, Calif., USA) were cultured in RPMI 1640 media supplemented with 10% fetal calf serum (Sigma-Aldrich Inc., St. Louis, Mo. USA). The four cells lines were plated in 96-well microtiter plates (PerkinElmer Life Sciences Inc, Boston, Mass. USA) at a confluency that allowed them to reach confluence after 4 days of growth. One day after plating, the cells were treated either with 10 μM etoposide, 100 nM staurosporine or 1.6 μM of Compound 48. Stock solutions of each compound were prepared in dimethyl sulfoxide (Sigma-Aldrich Inc., St. Louis, Mo. USA), diluted in media then added to the cells. The total dimethyl sulfoxide on the cells was 1%. After 3 days of incubation, the ATP levels in the cells were quantified using the luminescent ViaLight detection system (Bio-Whittaker, Md., USA). The results were plotted relative to untreated control cells, which were set at 100.

In data set [3] the test system is H1299 human non-small cell lung carcinoma. Nature of the data set: Cell viability, cellular ATP levels (Vialight HS). Format: cell-based. From the text:
(§1) The following cell lines were used: A549 human non-small cell lung carcinoma; C33A human cervical carcinoma; H1299 human non-small cell lung carcinoma; Hep-3B human hepatocellular carcinoma; MIA-Paca-2 human pancreatic carcinoma; PC-3 human prostatic adenocarcinoma (American Type Culture Collection, Manassas, Va., USA); HMEC normal human mammary epithelial cells; HUVEC normal human umbilical vein endothelial cells; and NHBE normal human bronchial epithelial cells (Cambrex Bio Science, Rockland, Me., USA). […] HMEC, HUVEC and NHBE cell lines were cultured in MEGM, EGM-2 and BEGM media, respectively (Cambrex Bio Science, Rockland, Me., USA). The cell lines were plated in 96-well microtitre plate at a density of 2–4×10^3 cells per well. After 16 hours, the cells were treated with various concentrations of Compound 50a or Compound 50b. Stock solutions of Compound 50a and Compound 50b, respectively, were prepared in dimethyl sulfoxide at a concentration of 5 mM. Serial dilutions were prepared in RPMI, 10% FBS and 2% DMSO and then added to the cells. The total DMSO in the cell cultures was 1%. […] The IC50s were determined using a best-fit sigmoidal dose response curve with variable slope.
(§2) The selected tumor cell lines included C33A human cervical carcinoma and H1299 human non-small cell lung carcinoma (American Type Culture Collection, Manassas, Va., USA). The cell lines were cultured in RPMI 1640 media supplemented with 10% FBS (Hyclone, Logan, Vt., USA), 100 U/mL penicillin, 100 μg/mL streptomycin and 2 mM L-glutamine (Invitrogen, Carlsbad, Calif., USA). The cell lines were plated in 96-well microtitre plate at a density of 2–4×10^3 cells per well. After 16 hours, the cells were treated with various concentrations of compound 66, 67, 68, 69 and 70, respectively. Stock solutions of compounds 66, 67, 68, 69 and 70 were prepared in dimethyl sulfoxide at a concentration of 5 mM. Serial dilutions were prepared in RPMI, 10% FBS and 2% DMSO and then added to the cells. The total DMSO on the cells was 1%. […] The IC50s were determined using a best-fit sigmoidal dose response curve with variable slope.

Data set [4] deals with C33A human cervical carcinoma. The data set can be described thus: Cell viability, cellular ATP levels (Vialight HS). Format: cell-based. As to conditions: C-33-A, read-out: IC50 C33A.
Description: as §1, §2

Data set [5] is described as follows: Body weight of SW480 tumor-bearing mice. Format: in vivo, CB17 SCID/SCID female mice. As to conditions: i.v. once daily for five days; 10 mg/kg (50, 50a, 50b), 50 mg/kg (74a). As for the experimental part:
(§3) SW480 cells were transplanted subcutaneously into the flank of female CB 17 SCID/SCID mice. Each mouse was inoculated with a suspension of 1×10^6 tumor cells per 100 μL on day zero. The following five treatment groups of ten mice each were used: (a) a negative control group treated with intravenous (i.v.) injection of vehicle, (b) a group treated with i.v. injection of a Compound 50, (c) a group treated with i.v. injection of a Compound 50a, (d) a group treated with i.v. injection of Compound 50b, (e) a group treated with i.v. injection of Compound 74a.
(§4) Treatment started on day twelve after SW480 cells transplantation and Compounds 50, 50a, 50b and 74a were administered i.v. once daily for five consecutive days at a dose of 10, 10, 10 and 50 mg/kg, respectively. Compound 50, 50a and 50b were prepared as a working solution of 1.5 mg/mL in a vehicle solution of 20% Cremaphor EL (Sigma, St. Louis, Miss., USA), and 10% Ethanol. Compound 74a was prepared as a working solution of 5 mg/mL in a vehicle solution of 5% Dextrose (Abbot Laboratories, QC, Canada). The negative control groups were treated with vehicle solution of 20% Cremaphor EL and 10% Ethanol alone.
(§5) The mice were weighed and the tumors measured on day 12 and every 2 to 3 days after treatment commenced. Observations continued for 23 days after initial tumor implantation. The changes in body weight and in the calculated tumor volume were plotted (FIGS. 9 and 10). Statistical analysis was performed using GraphPad Prism (GraphPad Software Inc., San Diego, Calif.). Two-way ANOVA was used to determine how the treatment affected tumor growth over time. Following the two-way ANOVA, post-tests were performed using the Benferroni method to determine the statistical difference between the mean tumor-size of the two groups being compared on every day that the tumors were measured.

The subject of data set [6] is SW480 human colon carcinoma cancer cells. Nature of the data set: SW480 colon carcinoma xenograft in SCID mice. Format: in vivo, CB17 SCID/SCID female mice. The following applies: i.v. 50 mg/kg once daily for five days. As for the experimental part: The resultant mice are a model for a human having colon carcinoma cancer.
The SW480 human colon carcinoma cancer cells were maintained in RPMI supplemented with 10% inactivated fetal bovine serum and 1% penicillin-streptomycin-L-Glutamine, under 5% CO2 at 37° C., and passaged twice a week. The cells were grown at a confluency lower than 70% and then collected with Trypsin (Bio-Whittaker, Md., USA). The cells were then centrifuged and washed twice using phosphate buffered saline solution (PBS) and resuspended in PBS at 1×10^6 cells per 100 μl. Viability was examined by staining with Trypan Blue and only flasks with cell viability of greater than 95% were used for in vivo studies.
as §3, §4, §5

Setting [7] is: NCI-H1299, Table 6, ATP levels 72 h post-treatment vs untreated cells, read-out: IC50 H1299.
[8] abbreviates: Table 6, ATP levels 72 h post-treatment vs untreated cells.
Setting [9] is: NCI-H1299, Table 7, cellular ATP levels, read-out: IC50 H1299.
The mark [10] stands for this setting: NCI-H1299, Table 8, cellular ATP levels, read-out: IC50 H1299.

In data set [1], `N.N.[Cl][Pt][Cl]` [Cisplatin, reference compound] came in with a Weight loss of 19%.
On to `COc1cc2c(cc1C)C(=O)C(O)=C1C(C)(C)C(=O)C=CC12C` (stereo not shown) [Compound 48, 10-Hydroxy-6-methoxy-1,1,4a,7-tetramethyl-1H,4aH-phenanthrene-2,9-dione], for which the “Selective cytotoxicity towards cancer cells” value in data set [2] is on record as “selectively cytotoxic towards cancer cells”.
`CCC1(C)C(=O)C=CC2(C)C1=C(O)C(=O)c1ccc(OC)cc12` (stereo not shown) [Compound 66]: the IC50 turned out to be 1440 nM in data set [3] (setting [7]) and 1550 nM in data set [4] (setting [8]).
As for `C=CCC1(C)C(=O)C=CC2(C)C1=C(O)C(=O)c1ccc(OC)cc12` (stereo not shown) [Compound 67], the figures for the half-maximal inhibitory concentration (IC50) in data set [3] (setting [7]) and in data set [4] (setting [8]) were 950 nM and 1190 nM, respectively.
As for `COc1ccc2c(c1)C1(C)C=CC(=O)C(C)(Cc3ccccc3)C1=C(O)C2=O` (stereo not shown) [Compound 68], the figures for the 50% inhibitory concentration (IC50) in data set [3] (setting [7]) and in data set [4] (setting [8]) were 2070 nM and 2530 nM, respectively.
Take `COC(=O)C1=CC2(C)C(=C(O)C(=O)c3ccc(OC)cc32)C(C)(C)C1=O` (stereo not shown) [Compound 69]: the values for the IC50 in data set [3] (setting [7]) and in data set [4] (setting [8]) were 1360 nM and 870 nM, respectively.
On to `COc1ccc2c(c1)C1(C)C=CC(=O)C(C)(C)C1C(=O)C2=O` (stereo not shown) [Compound 70], for which the concentration for half-maximal inhibition (IC50) came to 16800 nM in data set [3] (setting [7]) and 15900 nM in data set [4] (setting [8]).
Take `CCOP(=O)(OCC)OC1=C2C(C)(C)C(=O)C=CC2(C)c2cc(OC)ccc2C1=O` (stereo not shown) [Compound 72]: the IC50 amounted to 997 nM in data set [3] (NCI-H1299, read-out: IC50 H1299) and 212 nM in data set [4].
On to `COc1ccc2c(c1)C1(C)C=CC(=O)C(C)(C)C1=C(OP(=O)(OCc1ccccc1)OCc1ccccc1)C2=O` (stereo not shown) [Compound 73], for which the IC50 amounted to 1540 nM in data set [3] (setting [9]) and 655 nM in data set [4] (Table 7, cellular ATP levels).
In the case of `COc1ccc2c(c1)[C@@]1(C)C=CC(=O)C(C)(C)C1=C(OP(=O)(O)O)C2=O` [Compound 74a], the “Change in body weight” value in data set [5] is “non-significant change in body weight”. Also, the “Tumor growth compared to vehicle” value in data set [6] is “significantly reduction (p<0.001)”.
As to `CC1(C)C(=O)C=CC2(C)C1=C(O)C(=O)c1ccc(O)cc12` (stereo not shown) [Compound 76], the IC50 in data set [3] (setting [9]) was determined as 302 nM; in data set [4] (Table 7, cellular ATP levels), 200 nM.
As to `COc1ccc2c(c1)C1(C)C(=C(O)C2=O)C(C)(C)C(=O)CC1SCC(NC(C)=O)C(=O)O` (stereo not shown) [Compound 80], the IC50 in data set [3] (setting [10]) came to 208 nM; in data set [4] (Table 8, cellular ATP levels), 216 nM.
Consider `COc1ccc2c(c1)C1(C)C(=C(O)C2=O)C(C)(C)C(=O)CC1SCC(NC(=O)CCC(N)C(=O)O)C(=O)NCC(=O)O` (stereo not shown) [Compound 81], for which the half-maximal inhibitory concentration (IC50) in data set [3] (setting [10]) was 155 nM; in data set [4] (Table 8, cellular ATP levels) it was 186 nM.
Consider `COc1cc([C@@H]2c3cc4c(cc3[C@@H](O[C@@H]3O[C@@H]5CO[C@@H](C)O[C@H]5[C@H](O)[C@H]3O)[C@H]3COC(=O)[C@H]23)OCO4)cc(OC)c1O` [etoposide], for which the “Selective cytotoxicity towards cancer cells” value in data set [2] is “selectively cytotoxic towards cancer cells”.
